Entries after “also recorded” stand apart in the source; their conditions may differ.
Key:
[1] = In vivo subcutaneous rat model (biocompatibility); parameters: species or system Sprague-Dawley rats; conditions: 0.5 mL subcutaneous injection
Experimental: Eight female Sprague-Dawley rats (Harlan Laboratories, Inc.) weighing 150-175 g were used for in vivo biocompatibility testing of the BSA gels. Four rats were randomly assigned into two groups for explant time points at 4 days and 4 weeks for evaluation of the acute and chronic inflammatory response. Animals were anesthetized using the inhalant machine Impact 6 (Vetequip Inc., Pleasanton, Calif.). Isofluorane was administered at a concentration of 2% with an oxygen flow rate of 2 L/min. Following anesthesia; the backs of the animals were shaved and then disinfected with […] followed by alcohol and a second […] wipe. Two incisions of approximately 1.5 cm in length were made at the implantation sites and subcutaneous pockets were created by blunt dissection in each location. 20 wt % Albumin hydrogels 184 (both PBSA and TBSA) were fabricated as described in the methods section 2.1 and were cut into disks (h=0.5 cm, r=0.6 cm) using a sterile biopsy punch. In one location, an acid leached 20 wt % PBSA gel disk was implanted into the subcutaneous pocket far from the incision site. At the other incision site, a 20 wt % TBSA gel disk was implanted. A control saline injection and pH 7.4 (20 wt %) BSA solution was injected into the back of the rat in the two remaining implantation sites. […]

[2] = target: N-form albumin (TRP 213 atRA binding site) (Homo sapiens, UniProt P02768); conditions: literature estimate (Maiti et al. 2006), TRP 213 site on N-form albumin; cited from earlier work
N-form albumin (TRP 213 atRA binding site), sequence (P02768 25-609): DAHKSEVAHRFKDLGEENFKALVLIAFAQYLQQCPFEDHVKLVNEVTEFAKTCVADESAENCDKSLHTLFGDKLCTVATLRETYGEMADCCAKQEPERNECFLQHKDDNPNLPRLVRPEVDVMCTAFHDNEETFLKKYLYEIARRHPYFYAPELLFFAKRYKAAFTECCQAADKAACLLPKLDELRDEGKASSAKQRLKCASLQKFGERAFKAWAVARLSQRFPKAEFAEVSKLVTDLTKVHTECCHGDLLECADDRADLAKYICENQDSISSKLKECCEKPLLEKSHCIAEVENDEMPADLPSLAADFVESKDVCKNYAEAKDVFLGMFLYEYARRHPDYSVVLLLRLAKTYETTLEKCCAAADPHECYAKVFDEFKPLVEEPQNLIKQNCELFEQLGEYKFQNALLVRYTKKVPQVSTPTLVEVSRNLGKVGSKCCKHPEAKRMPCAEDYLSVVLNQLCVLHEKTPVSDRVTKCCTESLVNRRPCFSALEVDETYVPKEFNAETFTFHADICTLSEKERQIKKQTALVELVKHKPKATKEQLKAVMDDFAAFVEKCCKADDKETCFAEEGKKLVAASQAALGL

N-form albumin = N-form albumin (Bos taurus, UniProt P02769); assay: atRA binding by tryptophan fluorescence quenching at 340 nm, BSA at pH 7.4; parameters: species or system bovine
N-form albumin, sequence (P02769 25-607): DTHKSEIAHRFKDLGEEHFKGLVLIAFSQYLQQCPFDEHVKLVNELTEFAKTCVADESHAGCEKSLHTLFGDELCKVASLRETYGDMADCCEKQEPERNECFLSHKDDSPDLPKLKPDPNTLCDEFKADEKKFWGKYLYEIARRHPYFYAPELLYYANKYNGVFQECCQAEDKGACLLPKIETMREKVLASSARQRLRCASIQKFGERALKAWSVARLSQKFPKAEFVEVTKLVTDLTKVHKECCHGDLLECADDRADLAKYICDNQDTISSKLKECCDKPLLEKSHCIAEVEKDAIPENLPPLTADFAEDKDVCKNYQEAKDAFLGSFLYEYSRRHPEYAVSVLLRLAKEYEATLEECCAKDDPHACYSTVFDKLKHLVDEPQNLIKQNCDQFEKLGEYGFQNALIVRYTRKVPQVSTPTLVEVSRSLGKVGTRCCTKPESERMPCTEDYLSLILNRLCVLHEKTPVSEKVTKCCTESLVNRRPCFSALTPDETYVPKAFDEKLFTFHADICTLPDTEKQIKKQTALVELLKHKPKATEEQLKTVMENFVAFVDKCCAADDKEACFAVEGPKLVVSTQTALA
Experimental: (§1) All trans retinoic acid (atRA, 82625, Sigma, St. Louis, 206 MO) was added to solutions of BSA with molar ratio concentrations including 0:1, 0.08:1, 0.1:1, 0.13:1, 0.2:1, 0.4:1, 0.8:1, 1.2:1, 1.6:1, and 2:1 (atRA:BSA). A baseline fluorescence intensity of BSA at pH 7.4 and 3.5 measured at 340 nm with excitation at 295 nm was recorded (n=4 for each molar ratio concentration) as reported in the literature (Maiti et al. Int J Biol Macromol. 2006; 38(3-5):197-202; herein incorporated by reference in its entirety) using the plate reader Tecan Safire II (Tecan, Maennedorf, Switzerland). Then, atRA binding to BSA at pH 7.4 and 3.5 was assessed immediately after the addition of atRA at the different molar ratios. For measuring atRA release from hydrogel disks, a higher molar ratio concentration of 8:1 (atRA:BSA) was used when incorporating atRA into BSA precursor solutions before gelation. Precursor solutions were processed as normal to fabricate atRA-loaded PBSA and TBSA hydrogel disks with a final volume of 0.5 mL. Disks were submerged in 10 mL PBS at 37° C. for atRA release studies. Eluates were collected and replaced at 1, 3, 6, 12, 24, 48, 72, 144, and 240 hour sampling times and fluorescence intensity of atRA at 340 nm and BSA at 280 nm was collected with a NanoDrop™ 2000 C Spectrophotometer (ThermoScientific™, Waltham, Mass.).

F-form albumin = F-form albumin (Bos taurus, UniProt P02769); assay: atRA binding by tryptophan fluorescence quenching at 340 nm, BSA at pH 3.5; parameters: species or system bovine; conditions: pH 3.5, excitation 295 nm
F-form albumin, sequence (P02769 25-607): as above
Experimental: as §1

[3] = test system: Human aortic smooth muscle cells (HASMC); assay: Scratch test migration assay; format: cell-based; conditions: cells exposed directly to 25 ng/mL atRA in media, 24 hr scratch wound, serum starved, vs negative control
Experimental: Human aortic smooth muscle cells (HASMC) (Lonza, Basel, Switzerland) (passage 5) were cultured in SmGM-2 media. All cells were cultured at 37° C. in a humidified incubator containing 5% CO2. HASMCs (seeding density 1×10^4 cells/cm2) were seeded onto TCP surfaces and grown until 90% confluent. Cell culture media was changed every 2 days until confluence after which serum-free SmGM-2 media was used to create a nutrient starved environment for 24 hrs. A vertical scratch was made with a sterile 200 uL pipette tip in the confluent HASMC layer, rinsed with warm PBS, and replaced with 1 mL SmGM-2 media. The underside of the dish was marked near the wound area to aid in identification. Wells were randomly placed into 4 groups which received either a 100 uL dose of eluted material from atRA loaded PBSA or TBSA release study at day 10, a 100 uL dose of 24 ng atRA dissolved in PBS, or a control 100 uL of PBS. A light microscope (Nikon Eclipse TE2000-U) was used to capture images using Image Pro 5.0 software (MediaCybernetics, Bethesda, Md.) of the wound area immediately at day 0 and at various times until the control wound closed at 24 hrs. Wound areas were determined using an automated wound area measurement macro with the ImageJ 1.43r software (NIH, Bethesda, Md.). The measurement of migration was determined by subtracting the cell-free area at day 0 from the cell-free area at 24 hrs. […]

tryptophan fluorescence signal at 340 nm upon addition of atRA (N-form albumin; N-form albumin, pH 7.4, excitation 295 nm) | tryptophan fluorescence signal at 340 nm upon addition of atRA (F-form albumin) | Molecule | inflammatory response ([1]; 4 weeks) | inflammatory response (number of cells in the subcutaneous pocket) ([1]; 4 days, compared to saline control) | binding energy [2] | fluorescence quenching as a fraction of the initial fluorescence signal (N-form albumin; N-form albumin compared with F-form albumin) | HASMC migration [3]
 |  | BSA solution: control 20 wt % bovine serum albumin solution at pH 7.4, injected subcutaneously | decreased significantly | increased general inflammatory response |  |  | 
rapidly quenched | rapidly quenched | CC1=C(/C=C/C(C)=C/C=C/C(C)=C/C(=O)O)C(C)(C)CCC1 [atRA, All trans retinoic acid] |  |  | -7.58 kcal/mol | greater fluorescence quenching than F-form albumin | inhibited; also recorded: significant (p<0.05) reduction in cell migration
